Laboratory results taken from patent publication US20260053932A1, “COMPOUNDS AND METHODS FOR THE TARGETED DEGRADATION OF ANDROGEN RECEPTOR AND ASSOCIATED METHODS OF USE” (Arvinas Operations, Inc., priority 2020, published 2026).
Like-named read-outs stand apart in the source and are kept apart here.

System: androgen receptor (AR) in LNCaP and/or VCaP cells
Assay: Androgen Receptor ELISA assay (AR degradation)
Type: cell-based
Summary of the method: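 VCaP cells grown ≥3 days, then treated 5 h with compound in media containing 1 nM R1881 (10× stock). Cells lysed and AR quantified by sandwich ELISA (mouse AR detection Ab, HRP anti-mouse, TMB). DC50 and Dmax derived from AR degradation.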

[1] = LNCaP and/or VCaP cells, 5 hours incubation, media with R1881, read-out: DC50 Code* (degradation of AR ELISA)
[2] = degradation of AR ELISA in LNCaP and/or VCaP cells, Table 2C, read-out: DC50 Code*

DC50 [2] [nM] | Compound | further results
 | COc1cc(O[C@H]2CC[C@H](NC(=O)c3cnc(N4CCC(CN(C(C)=O)[C@H]5C[C@H](Oc6ccc7c(c6)C(=O)N(C6CCC(=O)NC6=O)C7=O)C5)CC4)cn3)CC2)ccc1C#N (some centres unmarked) [Compound 29, N-((1r,4r)-4-(4-cyano-3-methoxyphenoxy)cyclohexyl)-5-(4-((N-((1r,3r)-3-((2-(2,6-dioxopiperidin-3-yl)-1,3-dioxoisoindolin-5-yl)oxy)cyclobutyl)acetamido)methyl)piperidin-1-yl)pyrazine-2-carboxamide] | DC50 [1]: < 1 nM
 | COc1cc(O[C@H]2CC[C@H](NC(=O)c3cnc(N4CCC(CN(C)[C@H]5C[C@H](Oc6ccc7c(c6)C(=O)N(C6CCC(=O)NC6=O)C7=O)C5)CC4)cn3)CC2)ccc1C#N (some centres unmarked) [Compound 39, N-((1r,4r)-4-(4-cyano-3-methoxyphenoxy)cyclohexyl)-5-(4-((((1r,3r)-3-((2-(2,6-dioxopiperidin-3-yl)-1,3-dioxoisoindolin-5-yl)oxy)cyclobutyl) (methyl)amino)methyl)piperidin-1-yl)pyrazine-2-carboxamide] | DC50 [1]: < 1 nM
< 1 | Cc1cc(O[C@H]2C(C)(C)[C@H](NC(=O)c3ccc(N4CCC(CN5CCC[C@H]5COc5ccc6c(c5)C(=O)N(C5CCC(=O)NC5=O)C6=O)CC4)cc3)C2(C)C)cc(C)c1C#N (stereo partly drawn) [compound 172, N-((1r,3S)-3-(4-cyano-3,5-dimethylphenoxy)-2,2,4,4-tetramethylcyclobutyl)-4-(4-(((2S)-2-(((2-(2,6-dioxopiperidin-3-yl)-1,3-dioxoisoindolin-5-yl)oxy)methyl)pyrrolidin-1-yl)methyl)piperidin-1-yl)benzamide] | 
< 1 | CCN(CC1CCN(c2cnc(C(=O)N[C@H]3C(C)(C)[C@H](Oc4cc(C)c(C#N)c(C)c4)C3(C)C)cn2)CC1)[C@H]1C[C@H](Oc2ccc3c(c2)C(=O)N(C2CCC(=O)NC2=O)C3=O)C1 (some centres unmarked) [compound 206, N-((1r,3r)-3-(4-cyano-3,5-dimethylphenoxy)-2,2,4,4-tetramethylcyclobutyl)-5-(4-((((1r,3r)-3-((2-(2,6-dioxopiperidin-3-yl)-1,3-dioxoisoindolin-5-yl)oxy)cyclobutyl) (ethyl)amino)methyl)piperidin-1-yl)pyrazine-2-carboxamide] | 
< 1 | COCCN(CC1CCN(c2cnc(C(=O)N[C@H]3C(C)(C)[C@H](Oc4ccc(C#N)c(OC)c4)C3(C)C)cn2)CC1)[C@H]1C[C@H](Oc2ccc3c(c2)C(=O)N(C2CCC(=O)NC2=O)C3=O)C1 (some centres unmarked) [compound 116, N-((1r,3r)-3-(4-cyano-3-methoxyphenoxy)-2,2,4,4-tetramethylcyclobutyl)-5-(4-((((1r,3r)-3-((2-(2,6-dioxopiperidin-3-yl)-1,3-dioxoisoindolin-5-yl)oxy)cyclobutyl)(2-methoxyethyl)amino)methyl)piperidin-1-yl)pyrazine-2-carboxamide] | 
< 1 | Cc1cc(O[C@H]2C(C)(C)[C@H](NC(=O)c3ccc(N4CCC(CN5CCOC[C@H]5COc5ccc6c(c5)C(=O)N(C5CCC(=O)NC5=O)C6=O)CC4)cc3)C2(C)C)cc(C)c1C#N (stereo partly drawn) [compound 221, N-((1r,3S)-3-(4-cyano-3,5-dimethylphenoxy)-2,2,4,4-tetramethylcyclobutyl)-4-(4-(((3S)-3-(((2-(2,6-dioxopiperidin-3-yl)-1,3-dioxoisoindolin-5-yl)oxy)methyl)morpholino)methyl)piperidin-1-yl)benzamide] | 
 | CC(C)N(CC1CCN(c2cnc(C(=O)N[C@H]3CC[C@H](Oc4ccc(C#N)c(Cl)c4)CC3)cn2)CC1)[C@H]1C[C@H](Oc2ccc3c(c2)C(=O)N(C2CCC(=O)NC2=O)C3)C1 (some centres unmarked) [Compound 41, N-((1r,4r)-4-(3-chloro-4-cyanophenoxy)cyclohexyl)-5-(4-((((1r,3r)-3-((2-(2,6-dioxopiperidin-3-yl)-3-oxoisoindolin-5-yl)oxy)cyclobutyl) (isopropyl)amino)methyl)piperidin-1-yl)pyrazine-2-carboxamide] | DC50 [1]: < 1 nM
 | COc1cc(O[C@H]2C[C@H](N(CC(F)F)CC3CCN(c4ccc(C(=O)N[C@H]5C(C)(C)[C@H](Oc6cc(C)c(C#N)c(C)c6)C5(C)C)cc4)CC3)C2)cc2c1C(=O)N(C1CCC(=O)NC1=O)C2=O (some centres unmarked) [compound 242, N-((1r,3r)-3-(4-cyano-3,5-dimethylphenoxy)-2,2,4,4-tetramethylcyclobutyl)-4-(4-(((2,2-difluoroethyl)((1r,3r)-3-((2-(2,6-dioxopiperidin-3-yl)-7-methoxy-1,3-dioxoisoindolin-5-yl)oxy)cyclobutyl)amino)methyl)piperidin-1-yl)benzamide] | DC50 (degradation of AR ELISA in LNCaP and/or VCaP cells, read-out: DC50 Code*): 1 to 10 nM
 | COCCN(CC1CCN(c2cnc(C(=O)N[C@H]3CC[C@H](Oc4ccc(C#N)c(Cl)c4)CC3)cn2)CC1)[C@H]1C[C@H](Oc2ccc3c(c2)C(=O)N(C2CCC(=O)NC2=O)C3=O)C1 (some centres unmarked) [Compound 58, N-((1r,4r)-4-(3-chloro-4-cyanophenoxy)cyclohexyl)-5-(4-((((1r,3r)-3-((2-(2,6-dioxopiperidin-3-yl)-1,3-dioxoisoindolin-5-yl)oxy)cyclobutyl)(2-methoxyethyl)amino)methyl)piperidin-1-yl)pyrazine-2-carboxamide] | DC50 [1]: < 1 nM
< 1 | CC(C)N(C[C@H]1C2CN(c3ncc(C(=O)N[C@H]4C(C)(C)[C@H](Oc5ccc(C#N)c(Cl)c5)C4(C)C)cn3)C[C@H]21)[C@H]1C[C@H](Oc2ccc3c(c2)C(=O)N(C2CCC(=O)NC2=O)C3=O)C1 (stereo partly drawn) [compound 92, N-((1r,3S)-3-(3-chloro-4-cyanophenoxy)-2,2,4,4-tetramethylcyclobutyl)-2-((1S,5S)-6-((((1r,3S)-3-((2-(2,6-dioxopiperidin-3-yl)-1,3-dioxoisoindolin-5-yl)oxy)cyclobutyl) (isopropyl)amino)methyl)-3-azabicyclo[3.1.0]hexan-3-yl)pyrimidine-5-carboxamide] | 
1 to 10 | COc1cc(O[C@H]2C(C)(C)[C@H](NC(=O)c3cnc(N4CC(CN(C(C)C)[C@H]5C[C@H](Oc6ccc7c(c6)C(=O)N(C6CCC(=O)NC6=O)C7=O)C5)C4)cn3)C2(C)C)ccc1C#N (some centres unmarked) [compound 130, N-((1r,3r)-3-(4-cyano-3-methoxyphenoxy)-2,2,4,4-tetramethylcyclobutyl)-5-(3-((((1r,3r)-3-((2-(2,6-dioxopiperidin-3-yl)-1,3-dioxoisoindolin-5-yl)oxy)cyclobutyl) (isopropyl)amino)methyl)azetidin-1-yl)pyrazine-2-carboxamide] | 
< 1 | COc1cc(O[C@H]2C(C)(C)[C@H](NC(=O)c3cnc(N4CCC(CN(C(C)C)[C@H]5C[C@H](Oc6cccc7c6CN(C6CCC(=O)NC6=O)C7=O)C5)CC4)cn3)C2(C)C)ccc1C#N (mixture of isomers) [compound 177, rac-N-((1r,3r)-3-(4-cyano-3-methoxyphenoxy)-2,2,4,4-tetramethylcyclobutyl)-5-(4-((((1r,3r)-3-((2-(2,6-dioxopiperidin-3-yl)-1-oxoisoindolin-4-yl)oxy)cyclobutyl) (isopropyl)amino)methyl)piperidin-1-yl)pyrazine-2-carboxamide] | 
 | COc1cc(O[C@H]2CC[C@H](NC(=O)c3cnc(N4CC(CN(C(C)C)[C@H]5C[C@H](Oc6ccc7c(c6)C(=O)N(C6CCC(=O)NC6=O)C7=O)C5)C4)cn3)CC2)ccc1C#N (some centres unmarked) [Compound 20, N-((1r,4r)-4-(4-cyano-3-methoxyphenoxy)cyclohexyl)-5-(3-((((1r,3r)-3-((2-(2,6-dioxopiperidin-3-yl)-1,3-dioxoisoindolin-5-yl)oxy)cyclobutyl) (isopropyl)amino)methyl)azetidin-1-yl)pyrazine-2-carboxamide] | DC50 [1]: < 1 nM
< 1 | [2H]C([2H])([2H])Oc1cc(O[C@H]2C[C@H](N(CC3CCN(c4cnc(C(=O)N[C@H]5C(C)(C)[C@H](Oc6ccc(C#N)c(OC)c6)C5(C)C)cn4)CC3)C(C)C)C2)cc2c1C(=O)N(C1CCC(=O)NC1=O)C2=O (mixture of isomers) [compound 203, rac-N-((1r,3r)-3-(4-cyano-3-methoxyphenoxy)-2,2,4,4-tetramethylcyclobutyl)-5-(4-((((1r,3r)-3-((2-(2,6-dioxopiperidin-3-yl)-7-(methoxy-d3)-1,3-dioxoisoindolin-5-yl)oxy)cyclobutyl) (isopropyl)amino)methyl)piperidin-1-yl)pyrazine-2-carboxamide] | 
< 1 | Cc1cc(O[C@H]2C(C)(C)[C@H](NC(=O)c3ccc(N4CCC5(CC4)CN([C@H]4C[C@H](Oc6ccc7c(c6)C(=O)N(C6CCC(=O)NC6=O)C7=O)C4)CCO5)cc3)C2(C)C)cc(C)c1C#N (mixture of isomers) [compound 228, rac-N-((1r,3r)-3-(4-cyano-3,5-dimethylphenoxy)-2,2,4,4-tetramethylcyclobutyl)-4-(4-((1r,3r)-3-((2-(2,6-dioxopiperidin-3-yl)-1,3-dioxoisoindolin-5-yl)oxy)cyclobutyl)-1-oxa-4,9-diazaspiro[5.5]undecan-9-yl)benzamide] | 
< 1 | Cc1cc(O[C@H]2C(C)(C)[C@H](NC(=O)c3ccc(N4CCC(CN(C)[C@H]5CC[C@@H](Oc6ccc7c(c6)C(=O)N(C6CCC(=O)NC6=O)C7=O)C5)CC4)cc3)C2(C)C)cc(C)c1C#N (stereo partly drawn) [compound 152, N-((1r,3S)-3-(4-cyano-3,5-dimethylphenoxy)-2,2,4,4-tetramethylcyclobutyl)-4-(4-((((1S,3R)-3-((2-(2,6-dioxopiperidin-3-yl)-1,3-dioxoisoindolin-5-yl)oxy)cyclopentyl) (methyl)amino)methyl)piperidin-1-yl)benzamide] | 
< 1 | COCCN(CC1CCN(c2cnc(C(=O)N[C@H]3C(C)(C)[C@H](Oc4cc(C)c(C#N)c(C)c4)C3(C)C)cn2)CC1)[C@H]1C[C@H](Oc2ccc3c(c2)C(=O)N(C2CCC(=O)NC2=O)C3=O)C1 (some centres unmarked) [compound 119, N-((1r,3r)-3-(4-cyano-3,5-dimethylphenoxy)-2,2,4,4-tetramethylcyclobutyl)-5-(4-((((1r,3r)-3-((2-(2,6-dioxopiperidin-3-yl)-1,3-dioxoisoindolin-5-yl)oxy)cyclobutyl)(2-methoxyethyl)amino)methyl)piperidin-1-yl)pyrazine-2-carboxamide] | 
